Source: a melting point compilation (Tetko et al.; mined from patent text by program, amines drawn as free bases though some values may be those of a salt)

SMILES | melting point [°C]
OC(c1cccc2nc3n(c12)CCCN3c1ccc(Cl)cc1Cl)C1CC1 (stereo unspecified) | 208 to 209
Fc1cccc(F)c1C1=NC(c2cc3sc(-c4ccc(OC(F)(F)F)cc4)cc3s2)CC1 (stereo unspecified) | 135
CC(=O)Nc1ccc(Oc2c(NCc3ccco3)cc(C(=O)O)cc2S(=O)(=O)NC(C)=O)cc1 | 250
CC1(C)CCC(C)(C)c2cc(C(=O)COc3ccc(C(=O)OCc4ccccc4)c(O)c3)ccc21 | 103 to 104
COC(=O)c1ccc2sc(C)cc2c1 | 97 to 98
CCC(=O)NC1c2cc3nonc3cc2OC(C)(C)C1O (stereo unspecified) | 203 to 205
Cn1c(Cl)nc2cc(F)ccc21 | 138 to 141
Cc1nc(-c2ccc(Cl)cc2)sc1C(=O)N[C@H](C)[C@](O)(Cn1cncn1)c1ccc(F)cc1F | 159 to 160
O=c1c2ncn3c2n(c(=O)n1Cc1ccc([N+](=O)[O-])cc1)CC=C3c1cccc(C(F)(F)F)c1 | 230 to 232
Cc1ccc(Cl)cc1NC(=S)Nc1c(C)nn(C)c1C | 176 to 177
CC(C)(C)c1noc(-c2cccc(Cl)n2)n1 | 103 to 104
CC(C)(C)c1ccc(CNC(=O)C(Cc2ccccc2)NC(=O)Nc2n[nH]c(=S)s2)cc1 (stereo unspecified) | 213 to 214
CCCCOC(=O)N1CCNCC1 | 98
CC(=O)Nc1cccc(-c2csc3nc(C45CC6CC(CC(C6)C4)C5)cn23)c1 | 98 to 100
CCC(Cc1cc(C(C)(C)C)c(O)c(C(C)(C)C)c1)(C(=O)OCC1(C)C(C)(C)C=C(O)CC1(C)C)C(=O)OCC1(C)C(C)(C)C=C(O)CC1(C)C (stereo unspecified) | 166
O=c1c2ccccc2nc(-c2cc(-c3ccncc3)c(N3CCOCC3)s2)n1-c1ccccc1Cl | 179 to 180
CC(=O)c1sc(N2CCN(CC3CC3(F)F)C2=O)nc1C (stereo unspecified) | 146 to 148
CCOC(=O)c1cccc2c1Nc1ccc(C(=O)c3ccccc3)cc1N2Cc1ccccc1 | 134 to 136
COc1cccc(N2CCN(c3ccc(S(=O)(=O)N[C@@H](Cc4ccccc4)C(=O)O)cc3)CC2)c1 | 137 to 139
CCN(CC)C(=O)C(C#N)=Cc1cc(O)c(O)c([N+](=O)[O-])c1 | 156 to 160
CN1CCN(c2ncnc3c(NC(=O)c4c(Cl)cccc4Cl)cccc23)C1=O | > 250
O=C(O)c1ccc(=O)n(CCCNC(=O)c2ccccn2)c1 | 180 to 182
CCOC(=O)c1c(-c2ccccc2C)c2cc3c(cc2n(C)c1=O)CCC3 | 134 to 135
Cc1ccccc1-n1c(CC(O)c2ccccc2)nc2ccccc2c1=O (stereo unspecified) | 119

SMILES | melting point [°C]
CON(C(=O)c1cn(C)nc1C(F)F)C(C)c1cccc(I)c1 (stereo unspecified) | 136 to 138
NS(=O)(=O)c1cc(CO)cc(N2CCCC2)c1Oc1ccccc1 | 155
Cc1onc(C(F)(F)F)c1CS(=O)(=O)C1=NOC(C)(C)C1 | 135 to 136
CCOc1ccc(-c2ccc(C#N)cc2)cc1C=O | 110 to 121
NNC(=O)c1ccccc1OCC(F)(F)F | 102 to 104
N=C(N)NCCc1ccc(OCCC2Oc3ccccc3N(Cc3cccc4ccccc34)C2=O)cc1 (stereo unspecified) | 75 to 80
CC(C)=CCO[C@H]1NC(=O)[C@@H]1NC(=O)c1ccccc1 | 92
CSc1nn(-c2c(Cl)cc(C(F)(F)F)cc2Cl)c(N)c1S(=O)(=O)c1cccc(C(F)(F)F)c1 | 201 to 203
O=[N+]([O-])c1cc(Oc2ccccc2)ccc1OCc1ccccc1 | 84 to 87
Cc1noc(-c2cccc(CN3CCN(c4ccc(NC(=O)c5cccc(C)c5-c5ccc(C(C)C)cc5)cc4)CC3)c2)n1 | 74
CCOc1ccc2[nH]c(=O)n(C3CCCCC3)c2c1 | 203
CC(C)Cc1ccc2c(c1)OC(=O)C2 | 24 to 25
COc1cccc2c1Oc1sc(C)cc1C(=O)N2 | 160 to 164
O=C1CCC(Cc2ccc(Br)cc2)=C1O | 144 to 145
Cc1cccc(C)c1C(c1cccc2ccccc12)C(C#N)C(=O)OC(C)(C)C (stereo unspecified) | 124 to 128
CN(C)Cc1ccc2cc(NC(=O)c3ccc(-c4ccc(Cl)cc4)cc3)ccc2c1 | 230 to 231
CC(C)(C)[Si](C)(C)OCCc1c(N)nc(SCc2ccc3ccccc3c2)nc1O | 156 to 158
CC1(C)CC(n2cncc2C(=O)OC2CCCCC2)c2ccccc2O1 (stereo unspecified) | 128
O=C(Nc1nc(C(F)(F)F)c(Cl)s1)c1ccc(Cl)c([N+](=O)[O-])c1 | 183 to 184
COCOc1cc(OCOC)cc(C(=O)O)c1 | 129 to 130
COc1cnc(CSc2nc3cc(OC(F)(F)C(F)F)ccc3[nH]2)c(C)c1OC | 127 to 128
CCCOCN(C(=O)CCl)c1c(OC)cccc1OC | 83 to 85
NC(=O)C1CCc2c(sc3cc(F)ccc23)C1 (stereo unspecified) | 184 to 185
FC(F)(F)c1cc(C2CCCO2)c2cccc(C(F)(F)F)c2n1 (stereo unspecified) | 61 to 61.7

SMILES | melting point [°C]
CCOC(=S)c1ccc(C)c(-c2cc(C)no2)c1C | 72 to 74
Cc1nc2c(OCc3ccccc3)cc(Br)cc2n1COCC[Si](C)(C)C | 94 to 95
O=c1[nH]c2ncc(-c3cccc(-c4cn[nH]n4)c3)nc2n1CC1CCCCC1 | 299 to 301
CCCc1nc2c(N)nc3cc(OCc4cccnc4)ccc3c2s1 | 167 to 169
CCCN(C1CC(C)(C)Oc2ccc(OCc3ccccc3)cc21)S(=O)(=O)CC (stereo unspecified) | 102 to 103
O=C1c2ccccc2C(=O)N1C(O)C1OC(n2ccc(=O)[nH]c2=O)CC1O (stereo unspecified) | 241 to 242
Cc1ccc(C(=O)Nc2ccccc2C(=O)NCCc2ncc[nH]2)cc1 | 209 to 214
CCOC(=O)c1nc(NCC(c2ccccc2)c2ccccc2)c2ncn([C@@H]3O[C@H](CO)[C@H]4OC(C)(C)O[C@H]43)c2n1 | 126 to 128
Cn1cc(C(=O)NCc2ccc(Cl)cc2)c(=O)c2cc(CN3CCOCC3)cc(C#CCN3CCC(O)CC3)c21 | 180 to 183
COc1cc(-c2cnn3c(-c4cccc(NC(=O)CC(C)C)c4)ccnc23)cc(OC)c1OC | 86 to 90
O=S1(=O)CCC(NCCNC2CCS(=O)(=O)C2)C1 (stereo unspecified) | 60 to 85
Cn1c(C(F)(F)F)c([N+](=O)[O-])c2ccc(Cl)cc21 | 157 to 160
COC(=O)C=Cc1ccc(OCc2nc(-c3ccco3)oc2C)c(OC)c1 | 129 to 130
Cc1cc(Nc2ccc(Cl)cc2)nc(-n2nc(C)cc2C)n1 | 181 to 183
Cc1nc(-n2cnn(CC(=O)Nc3ccc(Cl)cc3)c2=O)sc1C(=O)NCc1cccnc1 | 255 to 256
CCN(CC)S(=O)(=O)c1ccc(Oc2ccc([N+](=O)[O-])cc2C#N)cc1 | 163 to 164
COc1cc2c(cc1C#N)C1(CO2)C(=O)Nc2ccccc21 (stereo unspecified) | 185 to 186
CC(C)(C)c1ccc(/C=C/C(=O)Nc2ccc3ocnc3c2)cc1 | 177
O=C(C1CCN(Cc2ccccc2)CC1)N1CCc2ccccc2C1 | 98 to 100
CCOC(=O)c1conc1-c1cccc(C#N)c1 | 135 to 137
Cc1ccc(C)c(CN(c2ncnc3c2cnn3C2CCCO2)C2CCCC2)c1 (stereo unspecified) | 173 to 174
CC(C)C[C@H](NC(=O)OCC1c2ccccc2-c2ccccc21)C(=O)N[C@H]1CCOC1OCc1ccccc1 (stereo partly specified) | 116 to 117
Cc1c(-c2ccc(OCc3ccccc3)cc2)n(Cc2ccc(OCCN3C[C@@H]4CC[C@H]3C4)cc2)c2ccc(OCc3ccccc3)cc12 | 95 to 100
O=C(CC1CN2C(=O)CC2O1)OC(c1ccccc1)c1ccccc1 (stereo unspecified) | 64.1 to 64.9

SMILES | melting point [°C]
C#CCn1c(-c2cc(Cl)nc(Cl)c2)nc(O)c(CC)c1=O | 200 to 202
Cn1ncnc1COc1nn2c(-c3ccccc3F)nnc2cc1C12CCC(C1)C2 | 198 to 200
OCCOc1cn(-c2ccc(F)cc2)c2ccc(Cl)cc12 | 118 to 120
Cc1cc(C2=NOC(c3cc(Cl)cc(Cl)c3)(C(F)(F)F)C2)ccc1C(=O)Cl (stereo unspecified) | 140 to 143
COc1nc(OC)nc(C2(c3nc(OC)nc(OC)n3)OC(=O)c3c(Cl)cccc32)n1 | 126 to 127
CCCc1ncc(CCCCC(=O)O)s1 | 124
COc1ccc(C2=NN(C3CCN(S(C)(=O)=O)CC3)C(=O)CC2)cc1OC | 164 to 166
CS(=O)(=O)c1ccc(-c2cc(C(=O)CCCO)nn2C2CCCCC2)cc1 | 112 to 114
CN(C)C(=O)NCCCCC1CCSS1 (stereo unspecified) | 52 to 53
CCC(COC)NC(=O)C(C)(C)c1ccc(-c2ccccc2)c(F)c1 (stereo unspecified) | 81 to 82
CCOC(=O)C1CCCN(S(=O)(=O)c2ccc3[nH]c(=O)c4cccc5c4c3c2C5)C1 (stereo unspecified) | 215 to 218
CC1=CCCC2C1(C)CCC(C)C2(C)CC1=CC(=O)C=CC1=O (stereo unspecified) | 62 to 64
[N-]=[N+]=NCCc1c[nH]c(=O)[nH]c1=O | 230 to 235
Cc1cc2cc(CN3CCC(CCC(=O)N(C)C)CC3)cnc2cc1NC(=O)c1ccc(-c2ccc(F)cc2)cc1 | 193 to 196
COc1cc(C(=O)NS(=O)(=O)c2ccccc2)ccc1CBr | 159 to 160
Cc1ccc(S(=O)(=O)O)cc1C=C1C(=O)C2(C)CCC1C2(C)C (stereo unspecified) | 130
Cc1ccc(-c2nc(CCOc3ccc(CN(O)C(N)=O)cc3)c(C)o2)cc1 | 145 to 146
CC1(C)Cc2sc3c(c2C1)CCNC3=O | 205 to 207
CC(C)C[C@H](CC(=O)NC1CCCCC1)C(=O)OCc1ccccc1 | 99 to 102
Cc1ccc(C(=O)Nc2c(NC(=O)CN3CCC4(CC3)OCCO4)ccc3c2C(=O)c2ccccc2C3=O)cc1 | 197 to 198
CC(C)c1noc(-c2c(Cl)ccc(C(=O)c3cnn(C)c3O)c2Cl)n1 | 138 to 144
NC(=O)[C@@H]1[C@H](Nc2ccnc3[nH]c(-c4ccc(CN5CCOCC5)cc4)nc23)[C@H]2C=C[C@@H]1C2 | 240 to 244
Cc1cc(C(O)(C(F)(F)Cl)C(F)(F)Cl)cc(C)c1O | 90.5 to 92
CCCCCCCCCCCCCCCCSC1OC(C)C(OC(C)=O)C(OC(C)=O)C1OC(C)=O (stereo unspecified) | 49 to 50
